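Following 48 hours of exposure in 96-well plates, responses at five concentrations were used to interpolate endpoints linearly. Here, GI50 denotes the concentration required for 50% inhibition of growth. The concentration for full growth arrest is given as TGI.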
Assays:
Test in all cases: growth of human tumour cells (NCI), 48 h
SF-539 CNS = tested on: SF-539 CNS
MALME-3M melanoma = tested on: MALME-3M melanoma
BT-549 breast = tested on: BT-549 breast
MCF7 breast = tested on: MCF7 breast
A498 renal = tested on: A498 renal
SNB-19 CNS = tested on: SNB-19 CNS
T-47D breast = tested on: T-47D breast
NCI-H460 lung = tested on: NCI-H460 lung
NCI-H522 lung = tested on: NCI-H522 lung
UACC-257 melanoma = tested on: UACC-257 melanoma

## C=CCc1c(Cl)nc(Cl)nc1Cl
SF-539 CNS
  TGI: 3.78 µM
MALME-3M melanoma
  TGI: 1470 nM
BT-549 breast
  TGI: 0.641 µM
MCF7 breast
  TGI: 0.668 µM
A498 renal
  TGI: 3.49 µM
SNB-19 CNS
  TGI: 2.21 µM
T-47D breast
  TGI: 0.979 µM
NCI-H460 lung
  TGI: 3.55 µM
NCI-H522 lung
  TGI: 0.19 µM
UACC-257 melanoma
  TGI: 1.9 µM

## Nc1nc2ccc(-c3nc4ccc5[nH]ncc5c4c4c3CCC4)cc2s1
SF-539 CNS
  GI50: 190 nM
  TGI: 4.15 µM
MALME-3M melanoma
  GI50: 202 nM
  TGI: 1630 nM
BT-549 breast
  GI50: 365 nM
  TGI: 10.2 µM
MCF7 breast
  GI50: 165 nM
  TGI: 7.36 µM
A498 renal
  GI50: 108 nM
  TGI: 0.624 µM
SNB-19 CNS
  GI50: 318 nM
  TGI: 11.4 µM
T-47D breast
  GI50: 0.408 µM
  TGI: 15.3 µM
NCI-H460 lung
  GI50: 208 nM
  TGI: 5.12 µM
NCI-H522 lung
  GI50: 253 nM
  TGI: 2.52 µM
UACC-257 melanoma
  GI50: 731 nM
  TGI: 5.58 µM

## CC(=O)Nc1ccc(-c2cc(C(=O)O)c3cc4ccccc4cc3n2)cc1
SF-539 CNS
  TGI: > 100 µM
MALME-3M melanoma
  TGI: > 100000 nM
BT-549 breast
  TGI: > 100 µM
MCF7 breast
  TGI: > 100 µM
A498 renal
  TGI: > 100 µM
SNB-19 CNS
  TGI: > 100 µM
T-47D breast
  TGI: > 100 µM
NCI-H460 lung
  TGI: > 100 µM
NCI-H522 lung
  TGI: > 100 µM
UACC-257 melanoma
  TGI: > 100 µM

## N=C1C(O)C2(I)c3ccccc3N3C(=N)C(O)C4c5ccccc5N1C4C32 (stereo not drawn)
MALME-3M melanoma
  TGI: > 100000 nM
BT-549 breast
  TGI: > 100 µM
MCF7 breast
  TGI: > 100 µM
A498 renal
  TGI: > 100 µM
SNB-19 CNS
  TGI: > 100 µM
T-47D breast
  TGI: > 100 µM
NCI-H460 lung
  TGI: > 100 µM
NCI-H522 lung
  TGI: > 100 µM
UACC-257 melanoma
  TGI: > 100 µM

## Cc1ccc2cnc(N)c(C#Cc3cc(C(=O)Nc4ccc(CN5CCN(C)CC5)c(C(F)(F)F)c4)cnc3C)c2c1
SF-539 CNS
  GI50: 664 nM
  TGI: 1.32 µM
MALME-3M melanoma
  GI50: 146 nM
  TGI: 631 nM
BT-549 breast
  GI50: 1940 nM
  TGI: 6.23 µM
MCF7 breast
  GI50: 498 nM
  TGI: 1.49 µM
A498 renal
  GI50: 837 nM
  TGI: 1.57 µM
SNB-19 CNS
  GI50: 891 nM
  TGI: 1.89 µM
T-47D breast
  GI50: 9.23 µM
  TGI: 36.7 µM
NCI-H460 lung
  GI50: 604 nM
  TGI: 1.34 µM
NCI-H522 lung
  GI50: 588 nM
  TGI: 1.36 µM
UACC-257 melanoma
  GI50: 651 nM
  TGI: 1.48 µM

## Oc1cccc(Nc2nc3ccccc3c3occc23)c1
SF-539 CNS
  GI50: 16100 nM
  TGI: 29.6 µM
BT-549 breast
  GI50: 14200 nM
  TGI: 27.2 µM
MCF7 breast
  GI50: 7400 nM
  TGI: 21 µM
SNB-19 CNS
  GI50: 10500 nM
  TGI: 22.2 µM
T-47D breast
  TGI: 21.2 µM
NCI-H460 lung
  GI50: 6130 nM
  TGI: 20.2 µM
NCI-H522 lung
  GI50: 14500 nM
  TGI: 28.8 µM
UACC-257 melanoma
  GI50: 15900 nM
  TGI: 29.4 µM

## O=c1oc2ccccc2c2c1Sc1ccccc1N2
SF-539 CNS
  TGI: > 100 µM
BT-549 breast
  TGI: > 100 µM
MCF7 breast
  TGI: > 100 µM
A498 renal
  TGI: > 100 µM
SNB-19 CNS
  TGI: > 100 µM
T-47D breast
  TGI: 45.1 µM
NCI-H460 lung
  TGI: > 100 µM
NCI-H522 lung
  TGI: > 100 µM
UACC-257 melanoma
  TGI: > 100 µM

## C[C@@H](NC(C#N)c1ccco1)c1ccccc1 (stereo partly drawn)
SF-539 CNS
  TGI: > 100 µM
MALME-3M melanoma
  TGI: > 100000 nM
BT-549 breast
  TGI: > 100 µM
MCF7 breast
  TGI: > 100 µM
A498 renal
  TGI: > 100 µM
SNB-19 CNS
  TGI: > 100 µM
T-47D breast
  TGI: > 100 µM
NCI-H460 lung
  TGI: > 100 µM
UACC-257 melanoma
  TGI: > 100 µM

## CCSCCCSCCSCC
SF-539 CNS
  TGI: > 100 µM
BT-549 breast
  TGI: > 100 µM
MCF7 breast
  TGI: > 100 µM
SNB-19 CNS
  TGI: > 100 µM
T-47D breast
  TGI: > 100 µM
NCI-H460 lung
  TGI: > 100 µM
NCI-H522 lung
  TGI: > 100 µM
UACC-257 melanoma
  TGI: > 100 µM

## O=[N+]([O-])c1ccccc1N=Nc1c(O)[nH]c2cccc(C(F)(F)F)c12
BT-549 breast
  TGI: > 100 µM
MCF7 breast
  TGI: > 100 µM
A498 renal
  TGI: > 100 µM
SNB-19 CNS
  TGI: > 100 µM
T-47D breast
  TGI: > 100 µM
NCI-H460 lung
  TGI: > 100 µM
NCI-H522 lung
  TGI: 69.3 µM
UACC-257 melanoma
  TGI: 34.5 µM

Source: PubChem BioAssay (NCI)
